Conditions in all cases: Dosage 320
Assay [1] deals with AMARE. Nature of the assay: Post-emergence herbicidal test. It counts as in vivo, Amaranthus retroflexus.
For another assay, the system named is LOLRI. Nature of the assay: Pre-emergence herbicidal test. It counts as in vivo.
In assay [2] the test system is PHBPU. As to the kind of experiment: Pre-emergence herbicidal test. It counts as in vivo, Pharbitis purpurea.
Assay [3] has as its system VERPE. As to the kind of experiment: Post-emergence herbicidal test. It counts as in vivo, Veronica persica.
Assay [4] has as its system STEME. Nature of the assay: Pre-emergence herbicidal test. It counts as in vivo, Stellaria media.
Assay [5] concerns POLCO. Nature of the assay: Pre-emergence herbicidal test. It counts as in vivo, Polygonum convolvulus.
Assay [6] deals with STEME. Nature of the assay: Post-emergence herbicidal test. It counts as in vivo, Stellaria media.
Assay [7] deals with ECHCG. Nature of the assay: Post-emergence herbicidal test. It counts as in vivo, Echinochloa crus-galli.
In assay [8] the test system is VIOTR. As to the kind of experiment: Post-emergence herbicidal test. It counts as in vivo, Viola tricolor.
The subject of assay [9] is ECHCG. As to the kind of experiment: Pre-emergence herbicidal test. It counts as in vivo, Echinochloa crus-galli.
For assay [10], the system named is SETVI. Nature of the assay: Pre-emergence herbicidal test. It counts as in vivo, Setaria viridis.
The subject of assay [11] is POLCO. As to the kind of experiment: Post-emergence herbicidal test. It counts as in vivo, Polygonum convolvulus.
The test system of another assay is MATIN. As to the kind of experiment: Pre-emergence herbicidal test. It counts as in vivo, Matricaria inodora.
For assay [12], the system named is AMARE. Nature of the assay: Pre-emergence herbicidal test. It counts as in vivo, Amaranthus retroflexus.
The subject of the next assay is HORMU. As to the kind of experiment: Pre-emergence herbicidal test. It counts as in vivo.
The test system of assay [13] is ABUTH. As to the kind of experiment: Pre-emergence herbicidal test. It counts as in vivo, Abutilon theophrasti.
Assay [14] concerns SETVI. Nature of the assay: Post-emergence herbicidal test. It counts as in vivo, Setaria viridis.
Assay [15] has as its system VIOTR. Nature of the assay: Pre-emergence herbicidal test. It counts as in vivo, Viola tricolor.
The subject of assay [16] is ALOMY. Nature of the assay: Pre-emergence herbicidal test. It counts as in vivo, Alopecurus myosuroides.
For assay [17], the system named is VERPE. Nature of the assay: Pre-emergence herbicidal test. It counts as in vivo, Veronica persica.
For assay [18], the system named is PHBPU. Nature of the assay: Post-emergence herbicidal test. It counts as in vivo, Pharbitis purpurea.
Assay [19] deals with ALOMY. As to the kind of experiment: Post-emergence herbicidal test. It counts as in vivo, Alopecurus myosuroides.
The subject of assay [20] is ABUTH. As to the kind of experiment: Post-emergence herbicidal test. It counts as in vivo, Abutilon theophrasti.

Regarding `Nc1nsc2c1C=CCN(CC1CCCCC1)C2=O` [Example I-04, 3-amino-7-(cyclohexylmethyl)-6H-isothiazolo[5,4-c]azepin-8-one], the AMARE in the assay on AMARE [1] and in the assay with AMARE [12] was 100 each time. The compound further came in with an LOLRI in the assay on LOLRI of 100. Moreover, the PHBPU in the assay with PHBPU [2] and in the assay on PHBPU [18] was 100 each time. Moreover, the values for the VERPE in the assay on VERPE [3] and in the assay on VERPE [17] were 90 and 100, respectively. The STEME in the assay with STEME [4] and with STEME [6] was 100 throughout. Also, the POLCO with POLCO [5] and in the assay with POLCO [11] was 100 in each case. Besides, the ECHCG in the assay on ECHCG [7] and with ECHCG [9] was 100 each time. The VIOTR in the assay with VIOTR [8] and in the assay on VIOTR [15] was 100 throughout. Also, the values for the SETVI with SETVI [10] and with SETVI [14] were 100 and 90, respectively. Further, the MATIN in the assay with MATIN is on record as 100. The same compound came in with an HORMU in the assay with HORMU of 90. For the same compound, the ABUTH in the assay with ABUTH [13] and in the assay with ABUTH [20] was 100 throughout. For the same compound, the ALOMY with ALOMY [16] and in the assay on ALOMY [19] was 100 each time.

In the case of `O=C(Nc1nsc2c1C=CCN(C1CCCCC1)C2=O)C(F)F` [Example I-25], the AMARE in the assay with AMARE [1] and with AMARE [12] was 100 each time. The PHBPU in the assay with PHBPU [2] and in the assay on PHBPU [18] was 100 in each case. Further, the VERPE with VERPE [3] is 90; in the assay on VERPE [17], 100. Moreover, the STEME with STEME [4] and in the assay on STEME [6] was 100 throughout. Also, the POLCO with POLCO [5] and in the assay on POLCO [11] was 100 each time. The ECHCG in the assay with ECHCG [7] and in the assay with ECHCG [9] was 100 each time. The VIOTR with VIOTR [8] and in the assay on VIOTR [15] was 100 each time. In addition, the SETVI in the assay with SETVI [10] and in the assay with SETVI [14] was 100 in each case. Moreover, the ABUTH in the assay with ABUTH [13] and in the assay with ABUTH [20] was 100 in each case. The ALOMY with ALOMY [16] and in the assay with ALOMY [19] was 100 each time.

Turning to `O=C1c2snc(NC(=O)C(F)(F)C(F)(F)F)c2C=CCN1CC1CCCCC1` [Example I-61], the AMARE in the assay on AMARE [1] and in the assay with AMARE [12] was 100 each time. Further, the LOLRI in the assay on LOLRI amounted to 100. The PHBPU is 100 in the assay on PHBPU [2] and 90 in the assay on PHBPU [18]. In addition, the values for the VERPE in the assay on VERPE [3] and in the assay on VERPE [17] were 90 and 100, respectively. For the same compound, the STEME with STEME [4] and in the assay on STEME [6] was 100 throughout. The POLCO with POLCO [5] and with POLCO [11] was 100 each time. Further, the ECHCG with ECHCG [7] is reported as 90; in the assay on ECHCG [9], 100. In addition, the VIOTR in the assay with VIOTR [8] and with VIOTR [15] was 100 throughout. The SETVI with SETVI [10] is given as 100; with SETVI [14], 80. In the assay on MATIN, this compound came in with an MATIN of 100. Moreover, the HORMU with HORMU turned out to be 100. In addition, the ABUTH is listed as 100 in the assay on ABUTH [13] and 80 in the assay with ABUTH [20]. Besides, the ALOMY in the assay on ALOMY [16] and in the assay with ALOMY [19] was 90 throughout.
